Measured values as given in patent US20090325219A1, “DEVICE, SYSTEM AND ASSAY FOR MEASURING CELL MOTILITY” (The Queen's University of Belfast, priority 2006, published 2009).
“Also recorded” adds a separate entry of the source.

Experiments:
Assay type in all cases: cell-based, rat
[1] = tested on: AY-27 cells; assay: Conventional scratch wound assay; details: compared to SdM and Mock-TGF
Protocol: Sub-confluent AY-27 cells were detached and 5×10^6 were seeded into 6-well tissue culture plates. The cells were grown to 100% confluency before treatment with Mock-TGF, SdM or 3 ng/ml TGF-β1 in duplicates for 24 h and 48 h. An in vitro “scratch wound” was created by scraping the confluent cell monolayer with a sterile pipette tip to make an approximate 1.0 mm gap. Three fixed points were marked in each well and phase-contrast images were captured at these same points over the 24 h and 48 h treatment course. The area of cells that had migrated beyond the ‘wound’ was estimated by superimposing a 5 mm×5 mm grid over the ‘wound’, and this was expressed as percentage when divided with the area of the ‘wound’.
(§1) FIG. 10 details results of a conventional motility assay (A) and the Matrigel invasion assay (B). […] Cells were treated with Mock-TGF (i), SdM (ii) or 3 ng.ml TGF-β1 (iii) and images were captured after 24 h and 48 h. The percentage of wound healing was calculated by counting the number of boxes at least half covered by cells in the 5 mm×5 mm grid-rule (A). […] Cells were treated with Mock-TGF (i), SdM (ii) or TGF-β1 (iii) and cells that passed successfully through the matrigel membrane after 24 h and after 48 h were Giemsa stained and enumerated.

[2] = tested on: AY-27 cells; assay: Conventional Matrigel invasion assay; details: 24 h and 48 h, compared to Mock-TGF and SdM, p<0.05 Student's t-test
Protocol: FCS (10%) in 0.75 ml RPMI-1640 acted as the chemo-attractant. This was added to the lower compartment of 24-well BioCoat Matrigel invasion chambers (Becton Dickinson Labware, Bedford, Mass.) with an 8-μm pore polycarbonate filter coated with Matrigel. In the upper compartment, 8×10^5 cells/well in SdM were placed in triplicate wells and incubated for 24 h and 48 h at 37° C. in a humidified incubator with 5% CO2. After incubation, the cells that had passed through the filter into the lower wells were stained with Speedy-Diff Rapid Giemsa (Clin-Tech Ltd, Essex, UK. #61078, #61079, #61080) and counted by assessing 10 random high power fields images using ×400 magnification on a Leitz Labrodux K (Germany) light microscope.
as §1

[3] = tested on: AY-27 cells; assay: Assay of present invention (motility towards agarose chemo-attractant matrix); details: compared to Mock-TGF and SdM
Protocol: Ten millimetre coverslips were seeded with AY-27 cells at a density of 5×10^5 and grown to 100% confluency in 12-well plates. The AY-27 cells at 100% confluency on 10 mm coverslips were removed (A) and washed vigorously using SdM medium (B).
In a separate 12-well culture plate, 1 ml of heated 2% agarose matrix consisting of 50% FCS and 50% supplemented RPMI thoroughly mixed was pipetted into each well, and allowed to cool and solidify (C).
A sterile 12 mm diameter metal ring was then used to cut out a circular area in the centre of the matrix (D & E) to provide a cell receiving zone and also to expose a portion of the supporting substrate to form the bridging portion between the cell receiving zone and the agent receiving matrix.
AY-27 cells on the 10 mm coverslip were then placed into the empty tissue receiving zone from which the agarose had been removed (F) such that the sample is spaced apart from and surrounded by the agarose (chemo-attractant agent receiving matrix).
An indentation provided in the cell receiving zone, allows reproducible locating of the coverslip including the cells to be tested in the cell receiving zone. The indentation is of suitable depth such that the top surface of the located slide is substantially flush with surrounding surface of the receiving surface. […]

With “TGF-β1: Recombinant human TGF-β1 (R&D systems), a known promoter to tumour progression” the “motility / wound closure” value ([1]; 3 ng/ml TGF-β1, 24 h) was “earlier wound closure”, the “motility / wound closure” value ([1]; 3 ng/ml TGF-β1, 48 h) was “this effect did not persist” and the “cells migrated across the matrigel” value [2] was “Significantly more cells were present in the membrane; also recorded: significantly more TGF-β1 treated cells migrated across the matrigel”. For the same substance, the “numbers of migrating cells (grid boxes covered)” value ([3]; 3 ng/ml TGF-β1, 24 h) was “no significant differences” and the “numbers of migrating cells (grid boxes covered)” value ([3]; 3 ng/ml TGF-β1, 48 h, p<0.05 student t-test) was “significantly more cells had migrated; also recorded: significantly greater numbers”.
